From PubChem BioAssay AID2305 (GlaxoSmithKline (GSK), 2010)

Tested on: P. falciparum 3D7 growth, pLDH absorbance
Test: blood-stage malaria parasite growth potency – strain 3D7, dose response (AID 2305)

SMILES	IC50
O=C(Nc1ccc(CN2CCN(S(=O)(=O)c3ccc(Cl)s3)CC2)cc1)c1cccs1	890 nM
COc1ccc(C2CC(c3ccccc3)=NN2C(=O)c2ccc(Br)o2)cc1 (centres undefined)	320 nM
COc1cccc2cc(C(=O)N[C@@H](CC(C)C)C(=O)N[C@H](/C=N/N3CCCC3=O)Cc3ccccc3)oc12	560 nM
Cc1cnc(C(=O)Nc2ccc3c(c2)CCCN(Cc2c[nH]c4cnccc24)C3)cn1	1230 nM
COc1ccc(CN2CCN(Cc3cc(Cl)ccc3O)CC2CCO)c(C)c1C (centres undefined)	1490 nM
O=C1SC(=Cc2ccc(O)c(O)c2)C(=O)N1c1ccccc1	1200 nM
CN1CCN(CCCN(Cc2cccc(-c3cccc(CNC4CCCC4)c3)c2)C(=O)CCC2CCCC2)CC1	680 nM
O=[N+]([O-])c1cccc(CNCC2CCN(CCc3ccccc3)CC2)c1	780 nM
CCOc1cc(C)ccc1C1CCN(CCCCNC(=O)c2ccc(-c3ccc(C(F)(F)F)cn3)cc2)CC1	790 nM
COc1ccc(-c2nnc(Sc3ccc(C#N)c([N+](=O)[O-])c3)n2CC(C)C)cc1	820 nM
COc1ccc2nc(NC3=NC(c4ccccn4)(c4ccccn4)C(=O)N3C)[nH]c2c1	590 nM
CN1CCN(c2ccc(Nc3c(C(N)=O)cnc4cc(-c5ccoc5)ccc34)cc2C(F)(F)F)CC1	780 nM
CCCCc1cc(N2CCC(NC(C)=O)C2)nc(Nc2ccc(C)cc2)n1 (centres undefined)	870 nM
CC(C)(C)c1ccc(-c2cc3c(ccc4nc(N)nc(N)c43)[nH]2)cc1	110 nM
CCCCN(CCCC)C(=NCCCCCCN=C(NC(N)=NCc1ccc(Cl)c(Cl)c1)N(CCCC)CCCC)NC(N)=NCc1ccc(Cl)c(Cl)c1	400 nM
NC1=NC(c2ccccc2)(c2ccccc2)C(=O)N1Cc1ccc(-c2ccncc2)cc1	770 nM
O=C(Nc1cc(Cl)ccc1O)c1ccc(Oc2ccc(C(=O)Nc3cc(Cl)ccc3O)cc2)cc1	920 nM
C=CCOC(=O)N1CCC(CNCc2ccc(-c3ccc(-c4nc5ccc(C(F)(F)F)cc5[nH]4)cc3)cc2)C1 (centres undefined)	150 nM
CC(C)CNCc1cccc(-c2ccc(CNC3CCN(Cc4ccccc4)CC3)cc2)c1	270 nM
O=C(Nc1ccc(Br)cc1)N1CCC(n2c(-c3ccccc3)nc3cccnc32)CC1	760 nM
CCCNCc1ccc(-c2ccc(CN(CCOC)C(=O)c3cccc(C#N)c3)cc2)nc1	1230 nM
N#Cc1ccc2c(c1)CN(C1CCC(NC(=O)C3=Cc4cc(Cl)ccc4OC3)CC1)CCC2 (centres undefined)	1330 nM
Cc1ccc(N2C(N)=NC(N)=NC2(C)C)cc1Cl	10 nM
O=C(Nc1cccc(-c2cc3ccccc3[nH]2)c1)C1CCN(Cc2ccccc2O)CC1	940 nM
CC(=O)Nc1cc(C(=O)Nc2cccc(-c3csc(-c4nc5ccccc5[nH]4)c3)c2)ccc1C	460 nM

SMILES	IC50
N#Cc1cccc(NC(=O)NC2CCN(CCCCCNC(=O)[C@@H]3C[C@H]3c3ccc(Cl)c(Cl)c3)CC2)c1	790 nM
COc1ccccc1COc1c(C)nc(N)nc1N	710 nM
CN(C)c1nc2cc(-n3cnc4cc(-c5ccc(Cl)cc5)sc4c3=O)ccc2n1CCCN1CCCC1	850 nM
O=S(=O)(NCCN1CCCC1)c1ccc(-c2cccc(CNC3Cc4ccccc4C3)c2)cc1F	1020 nM
COc1cc2ccccc2cc1OCCCN1CCN(CC(c2ccc(F)cc2)N2CCN(C(C)C)CC2)CC1 (centres undefined)	750 nM
CCc1ccccc1N=C1c2c(cccc2[N+](=O)[O-])C(=O)C1C(C)=O (centres undefined)	90 nM
COc1ccc2nccc([C@@H](O)CN3CCC(NC(=O)c4cc5c(Cl)cc(Cl)cc5[nH]4)CC3)c2c1	230 nM
Cc1[nH]c(C)c(-c2ccc(S(=O)(=O)c3ccc(Cl)cc3)cc2)c(=O)c1Br	40 nM
CCCCn1c(C)c(C(=O)OCC)c2cc(OC(C)=O)c(Br)cc21	630 nM
Brc1ccccc1CNc1ccnc(NCCn2ccnc2)n1	900 nM
COc1ccc2ncc(F)c(CCN3[C@@H]4CC[C@H]3CC(NCc3ccc5c(c3)OCCO5)C4)c2n1 (some centres undefined)	230 nM
COc1ccccc1CCN1CCC(CN(C)Cc2ccc(O)c(Cl)c2)CC1	330 nM
Cc1cc(N2C(N)=NC(N)=NC2(C)C)ccc1Cl	20 nM
CCCCc1ccc(-c2ccc(-c3c(C)[nH]c(C)c(Br)c3=O)cn2)cc1	60 nM
Nc1ccc(-c2ccc(NC(=O)Nc3ccccc3)cc2)cn1	920 nM
COc1ccc(NS(=O)(=O)c2ccc(C(=O)Nc3ccc(OC(F)(F)F)cc3)cc2)cc1N1CCN(CC2CC2)CC1	1000 nM
COc1cccc(CC(=O)N2CCC(n3c(C)nc4ccc(F)cc43)CC2)c1	910 nM
CCCCCCCCS(=O)(=O)NCCCC1CCN(CCCCCNC(=O)C=Cc2ccc(Cl)c(Cl)c2)CC1	860 nM
CCCCc1ccc(Cc2cnc3nc(N)nc(N)c3c2C)cc1	230 nM
CC(O)CNc1nc2ccccc2n1CC(=O)Nc1cccc(C(=O)Nc2cccc(C(F)(F)F)c2)c1 (centres undefined)	100 nM
CCNc1cc(C(=O)N[C@@H](Cc2ccccc2)[C@H](O)CNCc2cc(OC)cc(OC)c2)cc(N2CCCS2(=O)=O)c1	40 nM
CCOC(=O)c1c(CSc2ccccc2)oc2cc(CN(C)C)c(O)c(Cl)c12	660 nM
Cc1cc2cc(-c3ccc(CN)cc3)ccc2nc1N	1130 nM
COc1ccccc1-n1ccnc1SCC(=O)Nc1cc(C(F)(F)F)ccc1Cl	10 nM
Cc1cc(NC2CCN(CC3CCCCC3)C2)nc(Nc2ccc(Br)cc2)n1 (centres undefined)	570 nM

SMILES	IC50
COc1ccc(S(=O)(=O)NC2CCN(c3ccnc4cc(Cl)ccc34)C2)cc1 (centres undefined)	490 nM
COc1ccc(C)cc1NC(=O)CSc1nc2cccnc2n1C1CCCCC1	540 nM
COc1ccc(-c2ccc(NC(=O)c3cccc(Cl)c3)cc2)cc1CN1CCCN(C)CC1	600 nM
CC(C)(C)c1cc(N=NC(=O)c2ccncc2)cc(C(C)(C)C)c1O	700 nM
Cc1cccc2[nH]c(-c3ccc(-c4cccc(C(=O)NCCN5CCCC5)c4)s3)nc12	1140 nM
O=C(Nc1nc(-c2ccccn2)cs1)c1ccccc1COc1ccccc1	970 nM
NC(N)=Nc1ccc(C(=O)O)c(O)c1	1030 nM
COc1cc2ncnc(Nc3ccc4nc(-c5ccccc5)[nH]c4c3)c2cc1OC	440 nM
O=C(Nc1ccc2c(c1)CCN(C1CCC1)CC2)c1ccc(-n2ccnc2)cn1	370 nM
O=C(NCCCCCN1CCC(c2ccc(O)cc2)CC1)c1ccc(-c2ccccc2)cc1	930 nM
Cc1cc2[nH]c(-c3ccc(C(=O)NCCCN4CCN(c5cccc(Cl)c5)CC4)cc3F)nc2cc1Cl	480 nM
COC(=O)c1cc(OC)c(OC)cc1NC(=O)NC12CC3CC(CC(C3)C1)C2	880 nM
Cc1sc(NC(=O)Cc2cccc(C(F)(F)F)c2)nc1-c1cccc(Cl)c1	470 nM
CCN(CC)C(=O)c1cccc(/C=C/c2ccc(-c3c(C)[nH]c(C)c(Cl)c3=O)cc2)c1	260 nM
FC(F)(F)c1ccc2nc(-c3ccc(-c4cccc(CN5CCN(CCN6CCOCC6)CC5)c4)cc3)[nH]c2c1	160 nM
CC(C)N1CCN(C(CN2CCN(CCCOc3cccc4ccccc34)CC2)c2ccc(F)cc2)CC1 (centres undefined)	880 nM
Cc1cc(N(C)CCCN(C)C)nc(Nc2ccc(Cl)cc2)n1	1020 nM
Cn1cncc1C(=O)Nc1cccc(-c2ccc(-c3nc4ccc(F)cc4[nH]3)cc2)c1	730 nM
Cn1nc(-c2cccc(CN[C@@H]3CCc4ccc(O)cc43)c2)c2cnc(NC3CCCC3)nc21	740 nM
O=C(NCCc1ccc(Cl)c(Cl)c1)[C@@H]1CCCN1C(=O)c1ccc(O)c(-c2ccc(Cl)c(Cl)c2)c1	550 nM
CCOC(=O)CCCCOc1c(OC)cc(Cc2cnc(N)nc2N)cc1OC	30 nM
Cn1nc(-c2ccc(NC(=O)Nc3cc(C(F)(F)F)ccc3F)c(F)c2)c2cnc(NCCCn3ccnc3)nc21	740 nM
Cc1cccc2[nH]c(-c3ccc(-c4cccc(NC(=O)NCc5ccccc5)c4)cc3)nc12	780 nM
CN(C)CCC1CCCc2ccc(NC(=O)Nc3cccc(Cl)c3Cl)cc21 (centres undefined)	960 nM
COc1cc2c(cc1S(=O)(=O)c1ccc(NC(=O)c3cc4ccccc4s3)cc1)CCN(C)CC2	840 nM

SMILES	IC50
CC(C)NC(=O)Cn1cc(C2CCN(CC3CCN(C(=O)/C=C/c4ccc(Cl)c(Cl)c4)CC3)CC2)c2ccccc21	1030 nM
O=C(Nc1ccc(F)c(Cl)c1)c1cc([N+](=O)[O-])cc2cn[nH]c12	320 nM
CCCCc1cc(Cc2cnc(N)nc2N)cc(OC)c1OC	1040 nM
CC(C)C1=C[C@H]2C[C@]3(C4OCCO4)[C@@H]4CC[C@@H](C)[C@H]4C[C@@]2(COCc2cccc(C#N)c2)[C@]13C(=O)OC(c1ccccc1)c1ccccc1	1790 nM
Cc1nc2nc(N)nc(N)c2c(C)c1Cc1ccc(N)cc1	640 nM
COc1cccc(NC(=O)[C@H](C(C)C)n2c(=O)[nH]c3ccccc3c2=O)c1	270 nM
CCOc1cc(C)ccc1NC1CCN(CCCCNC(=O)c2ccc(NC(=O)c3ccc(Cl)cc3)cc2)CC1	710 nM
CS(=O)(=O)N1CC2(CCN(CCC(NC(=O)NCc3ccc(Cl)c(Cl)c3)c3ccc(Cl)c(Cl)c3)CC2)c2ccccc21 (centres undefined)	800 nM
CCCN(CCC)C(=O)c1cc(C(=O)N[C@@H](Cc2ccccc2)[C@H](O)CNC2CC2)cc(N2CCCCS2(=O)=O)c1	160 nM
COc1cc(C(=O)NC2CC(C)(C)N(C)C(C)(C)C2)ccc1-c1nc2cc(Cl)c(Cl)cc2[nH]1	790 nM
O=C(Nc1cc(Cl)ccc1O)c1cnn2c(C(F)(F)F)cc(-c3cccs3)nc12	860 nM
CC1(C)CNCc2cc(NC(=O)/C=C/c3ccc(Cl)cc3)ccc21	1180 nM
CO/C(=C\C=C\c1cc2cc(Cl)c(Cl)cc2[nH]1)C(=O)NCCCN1CC(C)N(C)CC1C (centres undefined)	1130 nM
CCN(CC)CCCC(C)N=C(Nc1ccc(C#N)cc1O)Nc1ccccc1Br (centres undefined)	1040 nM
Oc1ccc(Nc2nc(N3CCCC3)c3ccccc3n2)cc1	270 nM
Nc1ncc(Cc2cc(Cl)c(N)c3ncccc23)c(N)n1	1120 nM
Cc1nc2ccccc2n1C1C[C@H]2CC[C@@H](C1)N2Cc1nccn1-c1ccccc1 (some centres undefined)	370 nM
COC(=O)c1cccc(CNCc2ccc(-c3cccc(-c4nc5c(C)cccc5[nH]4)c3)cc2)c1	310 nM
COc1ccc(C(=O)Nc2cc(Cl)c3c(c2)C2CCCN2CC3)cc1C(F)(F)F (centres undefined)	750 nM
Clc1ccc2nnc(-c3c(Cl)cccc3Cl)n2n1	910 nM
CCOC(=O)c1cnc2c(OC)cc(OC)c(Cl)c2c1Nc1cccc(C)c1	840 nM
Cc1cc(N2CCNCC2)c2cc(NC(=O)Nc3ccc(Cl)c(Cl)c3)ccc2n1	310 nM
O=C(Nc1cccc(-c2nc3ccccc3s2)c1)c1ccccc1[N+](=O)[O-]	770 nM
CC1(C)N=C(N)N=C(N)N1OCCCCON1C(N)=NC(N)=NC1(C)C	70 nM
